For experiment [1], the target named is T1, Muscarinic acetylcholine receptor M2 (Homo sapiens, UniProt P08172).
T1 sequence (P08172 whole entry): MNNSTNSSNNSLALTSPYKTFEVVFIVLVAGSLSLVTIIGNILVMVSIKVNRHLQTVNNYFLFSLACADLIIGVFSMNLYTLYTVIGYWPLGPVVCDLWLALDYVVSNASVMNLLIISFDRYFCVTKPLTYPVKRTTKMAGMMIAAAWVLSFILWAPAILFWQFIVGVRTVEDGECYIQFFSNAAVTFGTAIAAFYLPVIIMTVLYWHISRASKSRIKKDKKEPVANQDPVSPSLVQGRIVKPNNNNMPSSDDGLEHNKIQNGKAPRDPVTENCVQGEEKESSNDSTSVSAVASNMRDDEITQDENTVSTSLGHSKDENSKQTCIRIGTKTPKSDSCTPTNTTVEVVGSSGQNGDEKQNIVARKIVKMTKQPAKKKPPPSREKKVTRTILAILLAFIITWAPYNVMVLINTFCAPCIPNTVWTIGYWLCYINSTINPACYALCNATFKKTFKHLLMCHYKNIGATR
In words: Displacement of [3H]NMS from human muscarinic M2 receptor expressed in CHO-K1 cells after 1 hr by scintillation counting. The format is cell-based. For orientation: Displacement assays read how much labelled ligand stays bound in the presence of the test substance.

Experiment [2] deals with Muscarinic acetylcholine receptors; M2 & M3 (Homo sapiens) (UniProt P20309+P08172). In words: Selectivity ratio of IC50 for human muscarinic M2 receptor to IC50 for human muscarinic M3 receptor.
Experiment [3] has as its system Cavia porcellus. In words: Inhibition of acetylcholine-induced bronchospasm in anesthetized Dunkin-Hartley guinea pig assessed as time required to recover 50% of maximum inhibitory effect at 3 mg/ml administered via nebulizer. The format is functional.
The target in experiment [4] is Muscarinic acetylcholine receptor M1 and M3 (Homo sapiens) (UniProt P20309+P11229). In words: Selectivity ratio of IC50 for human muscarinic M1 receptor to IC50 for human muscarinic M3 receptor.
The target of experiment [5] is Muscarinic acetylcholine receptor M3 (Homo sapiens, UniProt P20309). In words: Displacement of [3H]NMS from human muscarinic M3 receptor expressed in CHO-K1 cells after 1 hr by scintillation counting. The format is cell-based.
Experiment [6] deals with T2, Muscarinic acetylcholine receptor M1 (Homo sapiens, UniProt P11229).
T2 sequence (P11229 whole entry): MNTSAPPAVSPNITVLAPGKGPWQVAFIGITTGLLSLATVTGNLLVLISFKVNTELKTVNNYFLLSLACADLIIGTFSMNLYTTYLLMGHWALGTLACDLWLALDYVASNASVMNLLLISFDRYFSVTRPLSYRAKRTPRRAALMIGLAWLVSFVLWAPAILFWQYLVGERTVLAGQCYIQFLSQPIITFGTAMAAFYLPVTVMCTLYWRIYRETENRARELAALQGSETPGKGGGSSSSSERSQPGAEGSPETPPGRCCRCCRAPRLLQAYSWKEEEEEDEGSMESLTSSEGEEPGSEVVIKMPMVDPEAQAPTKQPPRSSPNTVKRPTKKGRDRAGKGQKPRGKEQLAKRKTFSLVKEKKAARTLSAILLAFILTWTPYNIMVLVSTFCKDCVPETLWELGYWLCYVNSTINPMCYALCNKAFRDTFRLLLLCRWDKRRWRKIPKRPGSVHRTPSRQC
Briefly: Displacement of [3H]NMS from human muscarinic M1 receptor expressed in CHO-K1 cells after 1 hr by scintillation counting. The format is cell-based.

The test system of experiment [7] is Cavia porcellus. Briefly: Inhibition of acetylcholine-induced bronchospasm in anesthetized Dunkin-Hartley guinea pig assessed as time required to recover 50% of maximum inhibitory effect at 1 mg/ml administered via nebulizer. The format is functional.

The results in this text go back to ChEMBL document CHEMBL1777779, “Discovery of novel quaternary ammonium derivatives of (3R)-quinuclidinyl carbamates as potent and long acting muscarinic antagonists” (Bioorg Med Chem Lett, 2011).

Chain of Muscarinic acetylcholine receptors; M2 & M3 (Homo sapiens) (P20309 whole entry, looked up, one chain of several): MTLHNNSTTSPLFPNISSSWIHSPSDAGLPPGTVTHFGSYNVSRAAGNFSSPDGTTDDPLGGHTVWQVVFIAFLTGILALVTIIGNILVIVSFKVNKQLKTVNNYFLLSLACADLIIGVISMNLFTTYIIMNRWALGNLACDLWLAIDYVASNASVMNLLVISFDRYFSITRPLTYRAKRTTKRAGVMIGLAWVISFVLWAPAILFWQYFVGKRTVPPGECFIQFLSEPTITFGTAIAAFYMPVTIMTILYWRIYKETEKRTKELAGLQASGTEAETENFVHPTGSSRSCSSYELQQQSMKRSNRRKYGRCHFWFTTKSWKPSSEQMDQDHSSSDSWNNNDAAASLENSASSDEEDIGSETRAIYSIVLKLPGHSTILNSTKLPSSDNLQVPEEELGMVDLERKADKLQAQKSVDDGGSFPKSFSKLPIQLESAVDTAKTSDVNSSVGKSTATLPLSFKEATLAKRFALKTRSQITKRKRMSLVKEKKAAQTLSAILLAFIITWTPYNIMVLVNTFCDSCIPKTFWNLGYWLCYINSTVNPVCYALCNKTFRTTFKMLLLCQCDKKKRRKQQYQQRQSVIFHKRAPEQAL
Chain of Muscarinic acetylcholine receptor M1 and M3 (Homo sapiens) (P20309 whole entry, looked up, one chain of several): as above
Chain of Muscarinic acetylcholine receptor M3 (P20309 whole entry): as the sequence (P20309 whole entry, looked up, one chain of several) above

Turning to `O=C(O[C@H]1CN2CCC1CC2)N(Cc1ccccc1)c1ccccc1`, the IC50 (commonly the concentration that inhibits the measured activity by half) in experiment [1] came out at 3.7 nM; in experiment [5], 1.2 nM; in experiment [6], 0.4 nM. For the same compound, the Ratio IC50 in experiment [2] was 3.1; in experiment [4], 0.3. In experiment [3], the Time worked out at 1.5 h.
Turning to `O=C(O[C@H]1C[N+]2(CCOc3ccccc3)CCC1CC2)N(Cc1ccsc1)c1ccccc1.[Br-]`, the half-maximal inhibitory concentration (IC50) in experiment [1] worked out at 1.6 nM; in experiment [5] it was 0.2 nM; in experiment [6], 0.4 nM. Further, the Ratio IC50 was 8 in experiment [2] and 2 in experiment [4]. For the same compound, in experiment [7], the Time is above 6 h.
For `O=C(O[C@H]1CN2CCC1CC2)N(Cc1cccs1)c1ccccc1`, the IC50 in experiment [1] came to 1.8 nM; in experiment [5], 0.6 nM; in experiment [6] it was 0.4 nM. The values for the Ratio IC50 in experiment [2] and in experiment [4] were 3 and 0.7, respectively. Besides, in experiment [7], the Time is below 4 h.
In the case of `CCCCN(C(=O)O[C@H]1CN2CCC1CC2)c1ccccc1`, the results for the concentration for half-maximal inhibition (IC50) in experiment [1], in experiment [5] and in experiment [6] were 22.9 nM, 4.3 nM and 1.1 nM, respectively. Further, the Ratio IC50 turned out to be 5.3 in experiment [2] and 0.2 in experiment [4]. For the same compound, in experiment [7], the Time was below 1 h.
Turning to `O=C(O[C@H]1C[N+]2(CCOc3ccccc3)CCC1CC2)N(Cc1cc(F)c(F)c(F)c1)c1cccc(F)c1.[Br-]`, the IC50 in experiment [1] was 14.4 nM; in experiment [5] it was 0.6 nM; in experiment [6], 1.1 nM. Besides, the Ratio IC50 was found to be 24 in experiment [2] and 1.8 in experiment [4]. The Time in experiment [7] is above 6 h.
For the compound `O=C(O[C@H]1C[N+]2(CCCc3ccccc3)CCC1CC2)N(Cc1ccccc1)c1ccccc1.[Br-]`, the IC50 in experiment [1] was found to be 4 nM; in experiment [5] it was 0.3 nM; in experiment [6], 1.5 nM. Besides, the figures for the Ratio IC50 in experiment [2] and in experiment [4] were 13.3 and 5, respectively. For the same compound, the Time in experiment [7] is above 6 h.
Consider `O=C(O[C@H]1C[N+]2(CCCc3cccs3)CCC1CC2)N(Cc1ccccc1)c1ccccc1.[Br-]`, for which the IC50 in experiment [1] is 7.6 nM; in experiment [5], 0.6 nM; in experiment [6], 1.4 nM. For the same compound, the figures for the Ratio IC50 in experiment [2] and in experiment [4] were 12.7 and 2.3, respectively. In experiment [7], the Time is above 6 h.
